From ChEMBL document CHEMBL5620412, “Discovery of benzofuran-2-carboxylic acid derivatives as lymphoid tyrosine phosphatase (LYP) inhibitors for cancer immunotherapy” (Eur J Med Chem, 2023)

Biological target: T1, Tyrosine-protein phosphatase non-receptor type 22 (Homo sapiens, UniProt Q9Y2R2)
T1 sequence (Q9Y2R2 whole entry): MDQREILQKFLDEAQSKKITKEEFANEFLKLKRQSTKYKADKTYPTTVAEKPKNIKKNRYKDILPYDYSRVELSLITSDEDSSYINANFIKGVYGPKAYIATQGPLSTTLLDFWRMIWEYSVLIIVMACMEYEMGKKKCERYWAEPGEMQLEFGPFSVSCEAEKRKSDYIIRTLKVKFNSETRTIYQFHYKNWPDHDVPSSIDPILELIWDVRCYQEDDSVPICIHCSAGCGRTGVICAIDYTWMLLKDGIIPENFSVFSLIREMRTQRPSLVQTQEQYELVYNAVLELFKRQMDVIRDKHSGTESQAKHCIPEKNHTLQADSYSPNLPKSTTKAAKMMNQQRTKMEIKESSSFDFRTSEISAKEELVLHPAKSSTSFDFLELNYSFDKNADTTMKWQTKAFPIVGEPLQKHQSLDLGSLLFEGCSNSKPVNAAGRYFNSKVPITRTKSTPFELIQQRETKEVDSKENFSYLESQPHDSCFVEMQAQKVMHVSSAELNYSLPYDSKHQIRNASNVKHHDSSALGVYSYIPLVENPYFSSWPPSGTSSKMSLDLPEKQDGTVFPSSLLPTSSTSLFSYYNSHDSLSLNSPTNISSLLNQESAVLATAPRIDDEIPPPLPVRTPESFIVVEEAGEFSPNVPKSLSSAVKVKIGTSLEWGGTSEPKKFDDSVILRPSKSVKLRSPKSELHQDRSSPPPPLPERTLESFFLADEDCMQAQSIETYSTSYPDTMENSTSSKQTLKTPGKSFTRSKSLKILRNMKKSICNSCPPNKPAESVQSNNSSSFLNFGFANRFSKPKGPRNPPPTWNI
Test: Inhibition of N-terminal His-tagged LYP catalytic domain (1 to 294 residues) (unknown origin) expressed in Escherichia coli BL21 (DE3) cells using pNPP as substrate by absorbance based plate reader analysis

Compound	IC50 [µM]
CN(c1ccc2oc(C(=O)O)cc2c1)S(=O)(=O)c1ccc(NCCN2CCOCC2)c([N+](=O)[O-])c1	> 20
CN(c1ccc2oc(C(=O)O)cc2c1)S(=O)(=O)c1ccc(Cl)cc1	> 20
CN(c1ccc2oc(C(=O)O)cc2c1)S(=O)(=O)c1ccc(Cl)c([N+](=O)[O-])c1	> 20
O=C(O)c1cc2cc(N(Cc3ccccc3)S(=O)(=O)c3ccc(-c4ccccc4)cc3)ccc2o1	> 20
O=C(O)c1cc2cc(NS(=O)(=O)c3ccc(-c4ccccc4)cc3)ccc2o1	> 20
CCCCCCNc1ccc(S(=O)(=O)N(Cc2ccc(-c3ccccc3)cc2)c2ccc3oc(C(=O)O)cc3c2)cc1[N+](=O)[O-]	5.56
O=C(O)c1cc2cc(N(Cc3ccccc3)S(=O)(=O)c3ccc(Cl)c([N+](=O)[O-])c3)ccc2o1	> 20
O=C(O)c1cc2cc(N(Cc3ccc(-c4ccccc4)cc3)S(=O)(=O)c3cccc(Cl)c3)ccc2o1	> 20
O=C(O)c1cc2cc(N(Cc3cccc(Br)c3)S(=O)(=O)c3ccc(NCCOc4ccccc4)c([N+](=O)[O-])c3)ccc2o1	6.7
O=C(O)c1cc2cc(N(Cc3ccc(-c4ccccc4)cc3)S(=O)(=O)c3ccc(Cl)cc3)ccc2o1	9.04
CC(C)CN(c1ccc2oc(C(=O)O)cc2c1)S(=O)(=O)c1ccc(Cl)c([N+](=O)[O-])c1	> 20
O=C(O)c1cc2cc(N(Cc3ccc(-c4ccccc4)cc3)S(=O)(=O)c3ccc(-c4cccs4)cc3)ccc2o1	8.87
O=C(O)c1cc2cc(N(Cc3ccc(-c4ccc(Cl)cc4)cc3)S(=O)(=O)c3ccc(Cl)c([N+](=O)[O-])c3)ccc2o1	6.78
O=C(O)c1cc2cc(N(Cc3ccc(-c4ccccc4)cc3)S(=O)(=O)c3ccc(Cl)nc3)ccc2o1	7.74
O=C(O)c1cc2cc(N(Cc3ccc(-c4ccccc4)cc3)S(=O)(=O)c3ccc(Cl)c([N+](=O)[O-])c3)ccc2o1	9.34
O=C(O)c1cc2cc(N(Cc3ccc(-c4ccccc4)cc3)S(=O)(=O)c3ccc(Br)cc3)ccc2o1	7.87
CCCCCCNc1ccc(S(=O)(=O)N(Cc2ccccc2)c2ccc3oc(C(=O)O)cc3c2)cc1[N+](=O)[O-]	5.03

Compound	IC50 [µM]
O=C(O)c1cc2cc(N(Cc3ccc(Oc4ccccc4)cc3)S(=O)(=O)c3ccc(-c4ccccc4)cc3)ccc2o1	10.7
O=C(O)c1cc2cc(N(Cc3ccc(-c4ccccc4)cc3)S(=O)(=O)c3ccccc3Cl)ccc2o1	15.1
O=C(O)c1cc2cc(N(Cc3ccc(-c4ccco4)cc3)S(=O)(=O)c3ccc(-c4ccccc4)cc3)ccc2o1	7.25
CC(C)CN(c1ccc2oc(C(=O)O)cc2c1)S(=O)(=O)c1ccc(-c2ccccc2)cc1	> 20
O=C(O)c1cc2cc(N(Cc3ccc(Oc4ccccc4)cc3)S(=O)(=O)c3ccc(Cl)c([N+](=O)[O-])c3)ccc2o1	5.67
O=C(O)c1cc2cc(N(Cc3ccccc3)S(=O)(=O)c3ccc(Cl)cc3)ccc2o1	> 20
O=C(O)c1cc2cc(N(Cc3ccc(-c4ccccc4)cc3)S(=O)(=O)c3ccc(O)c([N+](=O)[O-])c3)ccc2o1	18.7
O=C(O)c1cc2cc(N(Cc3ccccc3)S(=O)(=O)c3ccc(NCCOc4ccccc4)c([N+](=O)[O-])c3)ccc2o1	10.3
O=C(O)c1cc2cc(N(Cc3ccc(-c4cccc(Cl)c4Cl)cc3)S(=O)(=O)c3ccc(Cl)c([N+](=O)[O-])c3)ccc2o1	5.91
O=C(O)c1cc2cc(N(Cc3ccc(-c4ccccc4)cc3)S(=O)(=O)c3ccc(-c4ccccc4)cc3)ccc2o1	5.07
CN(c1ccc2oc(C(=O)O)cc2c1)S(=O)(=O)c1ccc(-c2ccccc2)cc1	> 20
O=C(O)c1cc2cc(N(Cc3ccc(-c4ccccc4)cc3)S(=O)(=O)c3cc(Cl)c(F)cc3F)ccc2o1	18.7
O=C(O)c1cc2cc(N(Cc3ccc(-c4ccc(Cl)cc4)cc3)S(=O)(=O)c3ccc(-c4ccccc4)cc3)ccc2o1	4.36
O=C(O)c1cc2cc(NS(=O)(=O)c3ccc(Cl)cc3)ccc2o1	> 20
CC(C)CN(c1ccc2oc(C(=O)O)cc2c1)S(=O)(=O)c1ccc(Cl)cc1	> 20
COc1ccc(-c2ccc(CN(c3ccc4oc(C(=O)O)cc4c3)S(=O)(=O)c3ccc(-c4ccccc4)cc3)cc2)cc1	5.47
O=C(O)c1cc2cc(NS(=O)(=O)c3ccc(Cl)c([N+](=O)[O-])c3)ccc2o1	> 20
